IC50 and EC50 data for four molecules are collected here from ChEMBL document CHEMBL1201862, “PubChem BioAssay data set” (2004).

Activity calls are given as the source filed them. Bounds are passed on as bounds.

Test [1] has as its target T1, Mannose-6-phosphate isomerase (Homo sapiens, UniProt P34949).
T1 sequence (P34949 whole entry): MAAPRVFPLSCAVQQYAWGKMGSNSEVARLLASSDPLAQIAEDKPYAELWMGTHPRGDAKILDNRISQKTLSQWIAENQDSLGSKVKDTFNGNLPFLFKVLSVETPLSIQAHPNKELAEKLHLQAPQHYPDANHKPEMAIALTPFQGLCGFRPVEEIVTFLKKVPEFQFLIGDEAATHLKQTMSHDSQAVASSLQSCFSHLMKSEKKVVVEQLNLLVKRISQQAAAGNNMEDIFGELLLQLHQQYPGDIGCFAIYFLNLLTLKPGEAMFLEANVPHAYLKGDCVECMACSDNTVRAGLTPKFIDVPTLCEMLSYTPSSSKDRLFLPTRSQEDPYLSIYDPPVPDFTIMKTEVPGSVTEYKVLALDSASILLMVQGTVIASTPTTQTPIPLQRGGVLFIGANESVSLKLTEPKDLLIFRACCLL
The test can be described thus: MPI inhibition at elevated mannose 6-phosphate – biochemical, fluorescence intensity, high mannose 6-phosphate, primary screen (AID 1220).

For another test, the system named is CHO-K1. The test can be described thus: Counterscreen for antagonists of the orexin 1 receptor (OX1R; HCRTR1): Homogeneous time resolved fluorescence (HTRF)-based cell-based dose response assay to identify antagonists of the parental CHO-K1 cell line. [Related pubchem assays (depositor defined):AID434989, AID435008, AID463079, AID485270, AID492963, AID492964, AID492965, AID493232, AID504699, AID504701]. The following applies: Cricetulus griseus. Format: functional. On the technique in general: A counterscreen serves to expose hits that act by an unwanted route or on another target.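 Further: potency for inhibition of ATP-stimulated IP1 production as antagonists.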

The target in test [2] is T2, Orexin/Hypocretin receptor type 1 (Homo sapiens, UniProt O43613).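 Further: antagonism measured against Orexin-A challenge at about its EC80.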
T2 sequence (O43613 whole entry): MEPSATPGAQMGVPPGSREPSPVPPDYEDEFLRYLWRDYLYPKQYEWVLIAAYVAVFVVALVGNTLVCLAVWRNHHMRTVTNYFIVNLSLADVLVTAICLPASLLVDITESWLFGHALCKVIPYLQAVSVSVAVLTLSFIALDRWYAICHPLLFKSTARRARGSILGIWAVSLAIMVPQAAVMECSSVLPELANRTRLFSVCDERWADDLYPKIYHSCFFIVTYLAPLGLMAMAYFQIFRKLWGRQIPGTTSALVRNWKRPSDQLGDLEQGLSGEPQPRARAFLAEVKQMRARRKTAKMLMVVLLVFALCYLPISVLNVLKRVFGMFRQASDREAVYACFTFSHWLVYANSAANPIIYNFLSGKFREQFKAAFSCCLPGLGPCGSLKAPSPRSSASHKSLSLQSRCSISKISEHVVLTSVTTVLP
Briefly: Homogeneous Time Resolved Fluorescence (HTRF)-based cell-based high throughput dose response assay for antagonists of the orexin 1 receptor (OX1R; HCRTR1). [Related pubchem assays (depositor defined):AID434989, AID435008, AID463079, AID485270, AID492963, AID492964, AID492965, AID493232, AID504717, AID504718]. The test is classed as functional. A general note: Time-resolved FRET reads energy transfer from a long-lived donor to a nearby acceptor.

Test [3] can be described thus: NIH3T3 cell viability loss – ATP luminescence, mouse fibroblasts, counter-screen, dose response (AID 2010).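 Further: cells exposed to compound for about 90 hours before reading.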 Format: functional, cell-based.
Test [4] in a line: CCR5-tropic HIV-1 fusion blockers – cell-based, CCR5-tropic Env, dose response (AID 2279). Format: functional.
The target of test [5] is Induced myeloid leukemia cell differentiation protein Mcl-1 (Homo sapiens, UniProt Q07820). The test is classed as functional.
Induced myeloid leukemia cell differentiation protein Mcl-1, sequence (Q07820 whole entry): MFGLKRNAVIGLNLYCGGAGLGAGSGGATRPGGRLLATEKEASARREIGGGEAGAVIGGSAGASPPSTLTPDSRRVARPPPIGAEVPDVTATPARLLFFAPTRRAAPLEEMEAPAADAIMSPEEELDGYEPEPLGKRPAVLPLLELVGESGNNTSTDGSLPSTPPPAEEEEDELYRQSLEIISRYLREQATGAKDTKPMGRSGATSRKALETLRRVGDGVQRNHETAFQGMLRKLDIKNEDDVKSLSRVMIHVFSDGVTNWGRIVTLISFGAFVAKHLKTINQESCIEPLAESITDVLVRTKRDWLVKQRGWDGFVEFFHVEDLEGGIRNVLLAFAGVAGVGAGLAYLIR

What is called IC50 is the concentration needed to halve the response being measured. For the molecule `CC1(C)Cc2ccccc2C2=NNC(=O)C2=N1`, the IC50 in test [1] is 14.1 µM (active).
For the molecule `Oc1ccc(NC(=S)N=Nc2c(O)[nH]c3ccccc23)cc1`, the values for the IC50 (in the test on CHO-K1; in test [2]) were > 66.2 µM (inactive) and 3.24 µM (active), respectively.
For orientation: EC50 means the midpoint of the concentration-response curve. With `CCCC(=O)NC(c1ccc(C(C)C)cc1)c1ccc2cccnc2c1O` (stereo unspecified), in test [3], the EC50 was 3.75 µM (active).
On to `Oc1c(Cl)cc(Cl)c(Cl)c1Cc1c(O)c(Cl)cc(Cl)c1Cl` [HEXACHLOROPHENE], for which the IC50 in test [4] was 0.97 µM (active); in test [5], 14.8 µM (active).
